Patent US20100286215A1, “BIS-AROMATIC COMPOUNDS USEFUL IN THE TREATMENT OF INFLAMMATION” (BIS-AROMATIC COMPOUNDS USEFUL IN THE TREATMENT OF …, priority 2007, published 2010)

Target: T1, Recombinant human LTC4 synthase (Homo sapiens, UniProt Q16873)
T1 construct: made in house; host or cells: Pichia pastoris ('Piccia pastoralis' [sic])
T1 sequence (Q16873 1-150): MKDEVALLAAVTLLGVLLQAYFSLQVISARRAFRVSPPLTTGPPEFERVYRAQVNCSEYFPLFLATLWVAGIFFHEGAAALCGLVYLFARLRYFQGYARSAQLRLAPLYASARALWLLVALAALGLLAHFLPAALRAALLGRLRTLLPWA
Assay: LTC4 synthase assay (conversion of LTA4 methyl ester to LTC4 methyl ester, HPLC)
Assay type: biochemical
Conditions: for inhibition at 10 µM / Percantage Inhibition at 10 μM (unless specified otherwise): inhibitor concentration 10 μM; for inhibition at 10 µM: read-out: Percantage Inhibition at 10 μM (unless specified otherwise)
Protocol: In the assay LTC4 synthase catalyses the reaction where the substrate LTA4 methyl ester is converted to LTC4 methyl ester. Recombinant human LTC4 synthase is expressed in Piccia pastoralis and the purified enzyme is dissolved in 25 mM Tris-buffer pH 7.8 and stored at −20° C. The assay is performed in phosphate buffered saline (PBS) pH 7.4, supplemented with 5 mM glutathione (GSH). The reaction is terminated by addition of acetonitrile/MeOH/acetic acid (50/50/1). The assay is performed at rt in 96-well plates. Analysis of the formed LTC4 methyl ester is performed with reversed phase HPLC (Waters 2795 utilizing an Onyx Monolithic C18 column). The mobile phase consists of acetonitrile/MeOH/H2O (32.5/30/37.5) with 1% acetic acid pH adjusted with NH3 to pH 5.6, and absorbance measured at 280 nm with a Waters 2487 UV-detector.
The following is added chronologically to each well: • 1. 50 μl assay buffer, PBS with 5 mM GSH. • 2. 0.5 μl inhibitor in DMSO. • 3. 2 μl LTC4 synthase in PBS. The total protein concentration in this solution is 0.025 mg/ml. Incubation of the plate at room temperature for 10 minutes. • 4. 0.5 μl LTA4 methyl ester. Incubation of the plate at rt for 1 min. • 5. 50 μl stop solution. 80 μl of the incubation mixture is analysed with HPLC.

| Structure (SMILES) | inhibition at 10 µM | further results |
| --- | --- | --- |
| CCCCCCC(=O)Nc1ccc(C(=O)c2ccc(NC(=O)c3ccc(Cl)cc3Cl)c(C(=O)O)c2)cc1 [14:2, 2-(2,4-Dichloro-benzoylamino)-5-(4-heptanoylamino-benzoyl)-benzoic acid] | 100% | – |
| CN(c1ccc(Cl)cc1)c1ccc(C(=O)c2ccc(Nc3ccc(C(F)(F)F)cc3)c(C(=O)O)c2)cc1 [9:3, 5-{4-[(4-Chloro-phenyl)-methyl-amino]-benzoyl}-2-(4-trifluoromethyl-phenylamino)-benzoic acid] | 86% | – |
| O=C(c1ccc(Oc2ccc(C(F)(F)F)cc2)cc1)c1ccc(Oc2ccc(F)c(F)c2)c(C(=O)O)c1 [8:5, 2-(3,4-Difluoro-phenoxy)-5-[4-(4-trifluoromethyl-phenoxy)-benzoyl]-benzoic acid] | 96% | – |
| CCOc1ccc(NC(=O)Nc2ccc(C(=O)c3ccc(Nc4ccc(F)c(F)c4)c(C(=O)O)c3)cc2)cc1 [5:2, 2-(3,4-Difluoro-phenylamino)-5-{4-[3-(4-ethoxy-phenyl)-ureido]-benzoyl}-benzoic acid] | 100% | – |
| CCCCOc1ccc(S(=O)(=O)Nc2ccc(C(=O)c3ccc(NS(=O)(=O)c4ccc(OCCCC)cc4)c(C(=O)O)c3)cc2C(=O)O)cc1 [Example 7] | – | Percantage Inhibition at 10 μM (unless specified otherwise): 97% |
| CN(c1ccc(Cl)cc1)c1ccc(C(=O)c2ccc(Oc3cccc(Cl)c3)c(C(=O)O)c2)cc1 [6:2, 2-(3-Chloro-phenoxy)-5-{4-[(4-chloro-phenyl)-methyl-amino]-benzoyl}-benzoic acid] | 96% | – |
| O=C(c1ccc(NC(=O)c2cc(Cl)cnc2Cl)cc1)c1ccc(Nc2ccc(F)c(F)c2)c(C(=O)O)c1 [5:12, 5-{4-[(2,5-Dichloro-pyridine-3-carbonyl)-amino]-benzoyl}-2-(3,4-difluoro-phenylamino)-benzoic acid] | 98% | – |
| CCCCc1ccc(C(=O)Nc2ccc(C(=O)c3ccc(NC(=O)c4ccc(CCCC)cc4)c(C(=O)O)c3)cc2C(=O)O)cc1 [Example 3, 2-(4-butylbenzamido)-5-(4-(4-butylbenzamido)-3-carboxy-phenylcarbonyl)benzoic acid] | 98% | – |
| O=C(Nc1ccc(C(=O)c2ccc(NC(=O)c3cccc4c3OC(F)(F)O4)c(C(=O)O)c2)cc1)c1cccc(Cl)c1 [7:6, 5-[4-(3-Chloro-benzoylamino)-benzoyl]-2-[(2,2-difluoro-benzo[1,3]dioxole-4-carbonyl)-amino]-benzoic acid] | 100% | – |
| COc1ccc(Cl)cc1S(=O)(=O)Nc1ccc(C(=O)c2ccc(NC(=O)c3cccc(Cl)c3)cc2)cc1C(=O)O [7:3, 5-[4-(3-Chloro-benzoylamino)-benzoyl]-2-(5-chloro-2-methoxy-benzenesulfonylamino)-benzoic acid] | 96% | – |
| CN(c1ccc(F)c(F)c1)c1ccc(C(=O)c2ccc(Nc3ccc(Cl)cc3)cc2)cc1C(=O)O [Example 19, 5-(4-(4-chlorophenylamino)-benzoyl)-2-((3,4-difluoro-phenyl)(methyl)amino)-benzoic acid] | 75% | – |
| CN(c1ccc(Cl)cc1)c1ccc(C(=O)c2ccc(Oc3ccccc3Cl)c(C(=O)O)c2)cc1 [6:4, 2-(2-Chloro-phenoxy)-5-{4-[(4-chloro-phenyl)-methyl-amino]-benzoyl}-benzoic acid] | 97% | – |
| O=C(c1ccc(Nc2ccc(Cl)cn2)cc1)c1ccc(Nc2ccc(F)c(F)c2)c(C(=O)O)c1 [5:6, 5-[4-(5-Chloro-pyridin-2-ylamino)-benzoyl]-2-(3,4-difluoro-phenylamino)-benzoic acid] | 84% | – |
| O=C(c1ccc(Nc2ccc(Cl)cc2)cc1)c1ccc(Nc2ccc(F)c(F)c2)c(C(=O)O)c1 [Example 16, 5-(4-(4-chlorophenylamino)-benzoyl)-2-(3,4-difluoro-phenylamino)benzoic acid] | 94% | – |
| CN(c1ccc(Cl)cc1)c1ccc(C(=O)c2ccc(Oc3ccccc3OC(F)(F)C(F)F)c(C(=O)O)c2)cc1 [6:8, 5-{4-[(4-Chloro-phenyl)-methyl-amino]-benzoyl}-2-[2-(1,1,2,2-tetrafluoro-ethoxy)-phenoxy]-benzoic acid] | 98% | – |
| CN(c1ccc(Cl)cc1)c1ccc(C(=O)c2ccc(Oc3cccc4c3CCCC4)c(C(=O)O)c2)cc1 [6:10, 5-{4-[(4-Chloro-phenyl)-methyl-amino]-benzoyl}-2-(5,6,7,8-tetrahydro-naphthalen-1-yloxy)-benzoic acid] | 88% | – |
| O=C(CC1CCCC1)Nc1ccc(C(=O)c2ccc(NC(=O)c3ccc(Cl)cc3Cl)c(C(=O)O)c2)cc1 [14:1, 5-[4-(2-Cyclopentyl-acetylamino)-benzoyl]-2-(2,4-dichloro-benzoylamino)-benzoic acid] | 93% | – |
| CN(c1ccc(Cl)cc1)c1ccc(C(=O)c2ccc(N(C)c3ccc(Cl)cc3)c(C(=O)O)c2)cc1C(=O)O [11:2, 5-{3-Carboxy-4-[(4-chlorophenyl)-methyl-amino]benzoyl}-2-[(4-chloro-phenyl)-methyl-amino]benzoic acid] | 82% | – |
| O=C(c1ccc(NS(=O)(=O)c2ccc([N+](=O)[O-])cc2)c(C(=O)O)c1)c1ccc(NS(=O)(=O)c2ccc([N+](=O)[O-])cc2)c(C(=O)O)c1 [Example 4, 2-((4-nitrophenyl)sulfonylamino)-5-(3-carboxy-4-(((4-nitrophenyl)-sulfonyl)amino)benzoyl)benzoic acid] | 100% | IC50: 0.191 µM |
| O=C(Nc1ccc(C(=O)c2ccc(NC(=O)c3ccc(Cl)cc3Cl)c(C(=O)O)c2)cc1C(=O)O)c1ccc(OC(F)(F)F)cc1 [Example 11, 2-(4-(trifluoromethoxy)benzamido)-5-(4-(2,4-dichloro-benzamido)-3-carboxyphenyl-carbonyl)benzoic acid] | 100% | – |
| CN(c1ccc(Cl)cc1)c1ccc(C(=O)c2ccc(Oc3cccc4c3CCCC4)c(-c3nnn[nH]3)c2)cc1 [10:1, {4-[(4-Chloro-phenyl)-methyl-amino]-phenyl}-[4-(5,6,7,8-tetrahydro-naphthalen-1-yloxy)-3-(1H-tetrazol-5-yl)-phenyl]-methanone] | 97% | – |
| CC(C)Oc1ccc(C(=O)Nc2ccc(C(=O)c3ccc(Nc4ccc(F)c(F)c4)c(C(=O)O)c3)cc2)cc1 [Example 15, 2-(3,4-difluorophenylamino)-5-(4-(4-isopropoxybenzamido)benzoyl)benzoic acid] | 68% | – |
| CN(c1ccc(Cl)cc1)c1ccc(C(=O)c2ccc(Nc3cccc(C(F)(F)F)c3)c(C(=O)O)c2)cc1 [9:1, 5-{4-[(4-Chloro-phenyl)-methyl-amino]-benzoyl}-2-(3-trifluoromethyl-phenylamino)-benzoic acid] | 90% | – |
| CCCCOc1ccc(S(=O)(=O)Nc2ccc(C(=O)c3ccc(N(C)c4ccc(F)c(F)c4)c(C(=O)O)c3)cc2)cc1 [Example 17, 5-(4-(4-butoxyphenylsulfonamido)benzoyl)-2-((3,4-di-fluorophenyl)(methyl)amino)benzoic acid] | 99% | – |
| O=C(c1ccc(Oc2ccc(Cl)cc2)c(C(=O)O)c1)c1ccc(Oc2ccc(Cl)cc2)c(C(=O)O)c1 [11:3, 5-{3-Carboxy-[4-(chlorophenoxy)]-benzoyl}-2-(4-chlorophenoxy)-benzoic acid] | – | Percantage Inhibition at 10 μM (unless specified otherwise): 97% |
